# Patent US20230190703A1, “TREATING SAR-COV-2 RELATED HEALTH PROBLEMS” (priority 2021, published 2023)
# Legend:
# colo 320 cells [1] = format: cell-based, human
# colo 320 cells [2] = tested on: colo 320 cells
# U937 cells [3] = assay: caspase 9 assay; format: cell-based, human; conditions: with SPK
# Method: (§1) The cells used in this example originated from the cell line U937 cells and were purchased from ATCC.
# The cells were treated in a 6-well plate with the treatment plan of control, A1 10 μM, A2 10 μM, SPK10 μM, A1+SPK10 μM, and A2+SPK10 μM for 24 hours and collected in a 1.5 ml tube. Then, Colo cells were lysed by freezing and thawing 4 times. Then, 50 μl of caspase assay buffer will be added to every well of an empty 96-well plate. Also, 50 μl of lysis buffer will be added to the blank wells and 45 μl added to the treatment and control wells. 5 μl of lysed cells will be added to each treatment well with 5 μl of pNA Substrate Solution indeed to every well. The plate will then be taken for a reading at zero time point using a microplate reader at 405 nm. Afterwards, the plate will be covered and incubated at 37 degrees Celsius. […] The data from the Caspase Assay will be analyzed by calculating the change in optical density per minute (ΔOD). The ΔOD is obtained through subtracting the sample's start OD from the sample's final OD to determine the overall change in absorbance. The ΔOD/minutes is calculated by taking the ΔOD and dividing by the overall time in minutes. The ΔOD per minute of each sample is compared to the control by a percent change to determine the activity of caspase and apoptosis. The OD of the blank samples are subtracted from the OD of the treated sample to normalize the data and ensure minimal interference.
# monocyte = conditions: literature; cited from earlier work
# U937 cells [4] = assay: LDH assay (percent cytotoxicity); format: cell-based, human; conditions: for cytotoxicity decrease: 10 μM, cytotoxicity induced by SPK; for effect on SPK-induced cytotoxicity at higher concentration: as concentrations increased (100 μM); for effect on cytotoxic effect of SPK (LDH): combined with SPK
# Method: as §1
# 10 μls of chemicals provided by ATCC were added into a 96-well plate with the treatment plan of control, control, control, SPK 10 μM, A1 10 μM, A1 100 μM, A2 10 μM, A2 100 μM, SPK+A1 10 μM, SPK+A1 100 μM, SPK+A2 10 μM, and SPK+A2 100 μM. After incubation for 48 hours, 30 μls of media from each well were removed and added into another 96 well plate labeled as released LDH. 30 microliters of LDH substrate mix were added to the released LDH plate to measure the released LDH by the cells from the treatments. This plate was left at room temperature and away from direct light for 30 minutes. After 30 minutes, 30 μls of LDH stop solution was added to each well to terminate the assay and prevent further color changes. The plate was placed in a microplate reader and optical density (OD) was determined for each sample at 490 nm. Another reading at 655 nm was performed to determine if there was any background interference with the reading. Then, 10 μls of LDH lysis buffer were added to the original plate containing the cells to lyse all the cells and to measure a total or maximum LDH for each sample. Another empty 96 well plate was then labeled total LDH. 30 μls of the cell lysate and media were transferred from the original plate containing the lysed cells into the empty 96 well plate labeled as total LDH. 30 μls of LDH substrate mix were added to each sample to measure the total LDH. The plate was left at room temperature for 30 minutes away from direct light. After the 30 minutes, 30 μls of LDH stop solution were added to each well to terminate the experiment. The OD of the total LDH plate was measured following the same measurement steps for the released LDH. The data collected from the 490 nm wavelength was subtracted by the data collected from the 655 nm wavelength to find the corrected OD for each sample's released and total LDH. The percent cytotoxicity was later calculated by the equation: (Sample OD released LDH−control OD released LDH)/(Sample OD total LDH−control OD released LDH)*100 and T-tests were applied to each group to measure significance for percent cytotoxicity.
# U937 cells [5] = format: cell-based, human
Compound,mitigation of SPK induced caspase apoptosis (colo 320 cells [1]),mitigation of SPK induced cytotoxicity (colo 320 cells [2]),decrease of caspase activity that was increased by SPK (U937 cells [3]),effect on SPK caused apoptosis (caspase) (U937 cells [3]),monocyte cell adhesion (monocyte),cytotoxicity decrease (U937 cells [4]),effect on SPK-induced cytotoxicity at higher concentration (U937 cells [4]),effect on cytotoxic effect of SPK (LDH) (U937 cells [4]),decrease in adhesion molecule expression (U937 cells [5]),decrease of cell adhesion (U937 cells [5]),"effect on adhesion molecule expression, in words (U937 cells [5])"
"C[C@H]1[C@H](OC(=O)CCC(=O)O)O[C@@H]2O[C@@]3(C)CC[C@H]4[C@H](C)CC[C@@H]1[C@@]24OO3 [A2, Artesunate]",remediate the increase in caspase apoptosis to a negative level,changed the cytotoxicity to a negative value,~70%,decrease SPK caused apoptosis significantly,inhibit monocyte cell adhesion,around 0.8%,the effectiveness decreased,reversed the cytotoxic effect of SPK from a positive value to a negative value,around 68%,around 70%,significantly decreased the adhesion molecule expression
"C[C@@H]1CC[C@H]2[C@@H](C)C(=O)O[C@@H]3O[C@@]4(C)CC[C@@H]1[C@]32OO4 [A1, Artemisinin]",remediate the increase in caspase apoptosis to a negative level,changed the cytotoxicity to a negative value,around 68%,decrease SPK caused apoptosis significantly,inhibit monocyte cell adhesion,around 2.4%,the effectiveness decreased,reversed the cytotoxic effect of SPK from a positive value to a negative value,around 70%,about 73%,significantly decreased the adhesion molecule expression
